Assay results from patent US20240018125A1, “CYCLIC ISOTHIOUREA DERIVATIVES AS CXCR4 MODULATORS” (ERMIUM THERAPEUTICS, priority 2020, published 2024).
Where a name gives a salt, the structure may show the parent alone.

Key:
[1] = tested on: peripheral blood mononuclear cells (PBMCs) from healthy donors; test: IFN production by R848-activated PBMCs, quantified with twINNE luciferase reporter cell line; format: cell-based, human; settings: Homo sapiens, PBMC; read-out: IC50 of anti-inflammatory activity (IFN production by activated PBMCs)
Method in brief: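 Functional IFN was quantified by luciferase output from the twINNE ISRE-reporter line after 24 h on conditioned supernatants. Those supernatants came from human PBMCs (4.10^6/mL) pre-treated with compound and then stimulated for 24 h with 5 μg/mL resiquimod. IC50s were fitted by nonlinear variable-slope regression.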

melting point [°C]	Structure (SMILES)	IC50 [1] [µM]
50 to 58	CCCCN1C(SCC2=CSC3=NC(Cc4ccccc4)CN23)=NCc2ccccc21 (centres unmarked) (as salt: hydrochloride) [Example 99, 6-benzyl-3-(((1-butyl-1,4-dihydroquinazolin-2-yl)thio)methyl)-5,6-dihydroimidazo[2,1-b]thiazole dihydrochloride]	
235 to 242	C1=C(CSC2=NCc3ccccc3N2)N2CC(C3CCCCC3)N=C2S1 (centres unmarked) (as salt: hydrochloride) [Example 15, 6-cyclohexyl-3-(((3,4-dihydroquinazolin-2-yl)thio)methyl)-5,6-dihydroimidazo[2,1-b]thiazole dihydrochloride]	
50 to 52	CC1(C)N=C(SCC2=CSC3=NC(Cc4ccccc4)CN23)Nc2ccccc21 (centres unmarked) (as salt: hydrochloride) [Example 87, 6-benzyl-3-(((4,4-dimethyl-1,4-dihydroquinazolin-2-yl)thio)methyl)-5,6-dihydroimidazo[2,1-b]thiazole dihydrochloride]	
70 to 80	CN1CCCC1CSC1=NCC(Cc2ccccc2)N1 (centres unmarked) (as salt: hydrochloride) [Example 53, 5-benzyl-2-(((1-methylpyrrolidin-2-yl)methyl)thio)-4,5-dihydro-1H-imidazole dihydrochloride]	
134 to 138	c1ccc2c(c1)CN(CCSC1=NCc3ccccc3N1)C2 (as salt: hydrochloride) [Example 71, 2-((2-(isoindolin-2-yl)ethyl)thio)-3,4-dihydroquinazoline dihydrochloride]	
147 to 151	Fc1cccc2c1CN=C(SCC1=CSC3=NC(Cc4ccccc4)CN13)N2 (centres unmarked) (as salt: hydrochloride) [Example 117, 6-benzyl-3-(((5-fluoro-1,4-dihydroquinazolin-2-yl)thio)methyl)-5,6-dihydroimidazo[2,1-b]thiazole dihydrochloride]	
136 to 142	C1=C(CSC2=NCc3ccccc3N2)N2CC(CCc3ccccc3)N=C2S1 (centres unmarked) (as salt: hydrochloride) [Example 126, 3-(((1,4-dihydroquinazolin-2-yl)thio)methyl)-6-phenethyl-5,6-dihydroimidazo[2,1-b]thiazole dihydrochloride]	
65 to 85	c1ccc(CC2CN=C(SCCN3CCCCCC3)N2)cc1 (centres unmarked) (as salt: hydrochloride) [Example 58, 1-(2-((5-benzyl-4,5-dihydro-1H-imidazol-2-yl)thio)ethyl)azepane dihydrochloride]	
50 to 60	c1ccc(CC2CN=C(SCCN3CCCCC3)N2)cc1 (centres unmarked) (as salt: hydrochloride) [Example 50, 1-(2-((5-benzyl-4,5-dihydro-1H-imidazol-2-yl)thio)ethyl)piperidine dihydrochloride]	
156 to 168	COc1ccc(CC2(C)CN3C(CSC4=NCc5ccccc5N4)=CSC3=N2)cc1 (centres unmarked) (as salt: hydrochloride) [Example 46, 3-(((3,4-dihydroquinazolin-2-yl)thio)methyl)-6-(4-methoxybenzyl)-6-methyl-5,6-dihydroimidazo[2,1-b]thiazole dihydrochloride]	
> 250	C1=C(CSC2=NCC(Cc3ccccc3)N2)N2Cc3ccccc3N=C2S1 (centres unmarked) (as salt: hydrochloride) [Example 33, 3-(((5-benzyl-4,5-dihydro-1H-imidazol-2-yl)thio)methyl)-5H-thiazolo[2,3-b]quinazoline dihydrochloride]	
180 to 190	C1=C(CSC2=NCc3ccccc3N2)N2Cc3cccnc3N=C2S1 (as salt: hydrochloride) [Example 28, 3-(((3,4-dihydroquinazolin-2-yl)thio)methyl)-5H-pyrido[2,3-d]thiazolo[3,2-a]pyrimidine trihydrochloride]	
178 to 182	CC1CCN(CCSC2=NCc3ccccc3N2)C1 (centres unmarked) (as salt: hydrochloride) [Example 138, 2-((2-(3-methylpyrrolidin-1-yl)ethyl)thio)-1,4-dihydroquinazoline dihydrochloride]	
174 to 180	C1=C(CSC2=NCC(C3CCCCC3)N2)N2Cc3ccccc3CN=C2S1 (centres unmarked) (as salt: hydrochloride) [Example 26, 3-(((4-cyclohexyl-4,5-dihydro-1H-imidazol-2-yl)thio)methyl)-5,10-dihydrobenzo[e]thiazolo[3,2-a][1,3]diazepine dihydrochloride]	
	Clc1ccc2c(c1)CN1C(CSC3=NCc4cc(Cl)ccc4N3)=CSC1=N2 [Example 44, 7-chloro-3-(((6-chloro-1,4-dihydroquinazolin-2-yl)thio)methyl)-5H-thiazolo[2,3-b]quinazoline dihydrochloride]	> 32
	CN1CCC(CCSC2=NCc3cc(Cl)ccc3N2)C1 (centres unmarked) [Example 177, 6-chloro-2-((2-(1-methylpyrrolidin-3-yl)ethyl)thio)-1,4-dihydroquinazoline dihydrochloride]	≤ 10
	CC1(C)CN=C(SCC2=CSC3=Nc4ccccc4CN23)N1 [Example 5, 3-(((5,5-dimethyl-4,5-dihydro-1H-imidazol-2-yl)thio)methyl)-5H-thiazolo[2,3-b]quinazoline dihydrochloride]	10 to 32

melting point [°C]	Structure (SMILES)	IC50 [1] [µM]
	CC(C)N1CCN=C1SCC1=CSC2=Nc3ccc(Cl)cc3CN12 [Example 48, 7-chloro-3-(((1-isopropyl-4,5-dihydro-1H-imidazol-2-yl)thio)methyl)-5H-thiazolo[2,3-b]quinazoline dihydrochloride]	≤ 10
	C1CCC2NC(SCCN3CCCC3)=NCC2C1 (centres unmarked) [Example 184, 2-((2-(pyrrolidin-1-yl)ethyl)thio)-1,4,4a,5,6,7,8,8a-octahydroquinazoline dihydrochloride]	> 32
	F[C@H]1CCN(CCSC2=NCc3ccccc3N2)C1 [Example 156, (S)-2-((2-(3-fluoropyrrolidin-1-yl)ethyl)thio)-1,4-dihydroquinazoline dihydrochloride]	10 to 32
	Fc1cccc(CC2CN3C(CSC4=NCc5ccccc5N4)=CSC3=N2)c1 (centres unmarked) [Example 121, 3-(((1,4-dihydroquinazolin-2-yl)thio)methyl)-6-(3-fluorobenzyl)-5,6-dihydroimidazo[2,1-b]thiazole dihydrochloride]	≤ 10
	Fc1ccc2c(c1)CN1C(CSC3=NCc4ccccc4N3)=CSC1=N2 [Example 84, 3-(((1,4-dihydroquinazolin-2-yl)thio)methyl)-7-fluoro-5H-thiazolo[2,3-b]quinazoline dihydrochloride]	≤ 10
	FC(F)CN1CCC(SC2=NCc3ccccc3N2)C1 (centres unmarked) [Example 102, 2-((1-(2,2-difluoroethyl)pyrrolidin-3-yl)thio)-1,4-dihydroquinazoline hydrochloride]	10 to 32
	CC1(c2ccccc2)CN=C(SCCN2CCCC2)N1 (centres unmarked) [Example 131, 5-methyl-5-phenyl-2-((2-(pyrrolidin-1-yl)ethyl)thio)-4,5-dihydro-1H-imidazole dihydrochloride]	10 to 32
	C1=C(CSC2=NCc3ccccc3N2)N2CC(c3ccccc3)N=C2S1 (centres unmarked) [Example 120, 3-(((1,4-dihydroquinazolin-2-yl)thio)methyl)-6-phenyl-5,6-dihydroimidazo[2,1-b]thiazole dihydrochloride]	≤ 10
	C1=C(CSC2=NCC(Cc3ccccc3)N2)N2Cc3ccccc3N=C2S1 (centres unmarked) [Example 33, 3-(((5-benzyl-4,5-dihydro-1H-imidazol-2-yl)thio)methyl)-5H-thiazolo[2,3-b]quinazoline dihydrochloride]	≤ 10
	c1ccc(N2CCC(SC3=NCc4ccccc4N3)C2)cc1 (centres unmarked) [Example 101, 2-((1-phenylpyrrolidin-3-yl)thio)-1,4-dihydroquinazoline hydrochloride]	10 to 32
	C1=C(CSC2=NCc3ccccc3N2)N2C[C@H](Cc3c[nH]c4ccccc34)N=C2S1 [Example 109, (S)-6-((1H-indol-3-yl)methyl)-3-(((1,4-dihydroquinazolin-2-yl)thio)methyl)-5,6-dihydroimidazo[2,1-b]thiazole dihydrochloride]	≤ 10
	Clc1ccc2c(c1)CN=C(SCCCCn1ccnc1)N2 [Example 176, 2-((4-(1H-imidazol-1-yl)butyl)thio)-6-chloro-1,4-dihydroquinazoline dihydrochloride]	10 to 32
	C1=C(CSC2=NCc3ccccc3N2)N2C(=N[C@H]3CCCC[C@@H]32)S1 (relative stereo) [Example 13, trans-3-(((3,4-dihydroquinazolin-2-yl)thio)methyl)-4a,5,6,7,8,8a-hexahydrobenzo[4,5]imidazo[2,1-b]thiazole dihydrochloride]	≤ 10
	C1=C(CSC2=NCc3ccccc3N2)N2Cc3ccccc3CN=C2S1 [Example 11, 3-(((3,4-dihydroquinazolin-2-yl)thio)methyl)-5,10-dihydrobenzo[e]thiazolo[3,2-a][1,3]diazepine dihydrochloride]	≤ 10
	CN1CCC(SC2=NCc3cc(Cl)ccc3N2)C1 (centres unmarked) [Example 103, 6-chloro-2-((1-methylpyrrolidin-3-yl)thio)-1,4-dihydroquinazoline dihydrochloride]	≤ 10
	F[C@@H]1CCN(CCSC2=NCc3ccccc3N2)C1 [Example 157, (R)-2-((2-(3-fluoropyrrolidin-1-yl)ethyl)thio)-1,4-dihydroquinazoline dihydrochloride]	10 to 32
	C1=C(CSC2=Nc3ccccc3C(c3ccccc3)N2)N2Cc3ccccc3CN=C2S1 (centres unmarked) [Example 27, 3-(((4-phenyl-3,4-dihydroquinazolin-2-yl)thio)methyl)-5,10-dihydrobenzo[e]thiazolo[3,2-a][1,3]diazepine dihydrochloride]	≤ 10

Structure (SMILES)	melting point [°C]	IC50 [1] [µM]
c1ccc2c(c1)CN=C(SCCN1[C@@H]3CCC[C@H]1CC3)N2 (as salt: hydrochloride) [Example 133, 2-((2-((1R,5S)-8-azabicyclo[3.2.1]octan-8-yl)ethyl)thio)-3,4-dihydroquinazoline dihydrochloride]	52 to 70	
